In patent publication US5496856A, “Aspartame for its application as a therapeutically active substance” (priority 1993, dated 1996):
Entries after “also recorded” stand apart in the source; their conditions may differ. Peptide text beside a SMILES is read from it.

Assays:
tubular cells = assay: Urinary renal enzyme activities (LAP, PAL, LDH, γ-GT) in rats treated with ochratoxin A; assay type: in vivo; conditions: aspartame 25 mg/kg + ochratoxin A 289 μg/kg, 3 weeks
Procedure: (§1) The animals used in this experiment are male rats of the Wistar strain weighing 160±10 g.
(§2) The aspartame is administered by gavage, at the same time as the ochratoxin A, every 48 hours for 3 weeks.
(§3) Group I: control rats (blanks)
(§4) Group II: control rats treated with 0.1 M NaHCO3, pH 7.4
(§5) Group III: rats treated with ochratoxin A (289 μg/kg)
(§6) Group IV: rats treated with ochratoxin A (289 μg/kg)+aspartame (25 mg/kg).
(§7) The control and treated rats are placed in a metabolic cage for 24 hours for urine sampling and then sacrificed.

glomerular filtration [1] = conditions: mice
Procedure: Male mice of the Swiss strain weighing 32±2 g are distributed into cages in groups of 5. The animals are classified in order of increasing weight and distributed randomly into 4 groups of 5 mice (homogeneous distribution by randomization).
An amount of ochratoxin A corresponding to 289 μg/kg of body weight is given to the mice via an esophageal tube every 48 h for one week; the toxin is dissolved in 0.3 ml of 0.1M NaHCO3, pH 7.4.
0.3 ml of 0.1 M NaHCO3, pH 7.4, is given in the same way to the mice used as controls.
4 groups of 5 mice were studied.
Group I: control mice treated with 0.1 M NaHCO3, pH 7.4
Group II: mice treated with ochratoxin A (289 μg/kg)
Group III: mice treated with ochratoxin A (289 μg/kg)+aspartame (30 mg/kg)
Group IV: control mice treated with aspartame only.
The aspartame is administered in 0.3 ml of H2 O one hour after the last administration of ochratoxin A.
The mice are placed in a metabolic cage for 15 hours and then sacrificed.
The creatinine is assayed in the 15-hour urine and serum.

glomerular filtration [2] = assay: Serum and urine creatinine in ochratoxin A-treated rats; assay type: in vivo, male rats of the Wistar strain
Procedure: The animals used in this experiment are male rats of the Wistar strain weighing 160±10 g. The animals are classified in order of increasing weight and distributed randomly into 4 groups of 6 rats (homogeneous distribution by randomization).
An amount of ochratoxin A corresponding to 289 μg/kg of body weight is given to the rats by gavage every 48 hours for 3 weeks; the toxin is dissolved in 0.3 ml of a 0.1 M solution of NaHCO3, pH 7.4.

[3] = Toxic oxidative effects of ochratoxin A in vivo and in vitro
[4] = Plasma concentration of aspartame after oral administration; assay type: in vivo; conditions: within 24h, per os
human plasma proteins [5] = assay: OTA binding to human plasma proteins, condition (i): aspartame in upper (plasma) compartment; assay type: in vitro ADME
Procedure: (§8) A further study was performed in order to determine the effect of aspartame on OTA binding on human plasma proteins in vitro.
(§9) An in-vitro study was performed on plasma samples obtained from healthy human volunteers, from a French blood bank (Centre de transfusion sanguine in Bordeaux), using citrate as anticoagulant. Blood samples were centrifuged at 1800 g for 30 minutes. This pooled human plasma contained 41±3 g of proteins per liter.
(§10) Static diffusion cells (polypropylene, homemade according to the model provided by Nalgene, USA) containing two compartments (upper and lower) separated by a dialysing membrane having a 10 000 D exclusion limit (Sigma Chemical, USA) were used. This membrane allows OTA and aspartame diffusion and not protein diffusion.
(§11) A human plasma sample was placed in the upper compartment and a medium (RPMI 1640, Sigma chemical, USA) in the lower one.
(§12) The plasma binding properties of OTA were evaluated under two different conditions:
(i) The aspartame at a concentration of 10 μg/ml was added in the upper compartment containing human plasma proteins before introducing OTA at three different concentrations (20, 100, and 500 μg/ml) in the lower compartment;
(§13) OTA concentration in the upper compartment was determined by HPLC (Mobile phase: methanol, acetonitrile, acetic acid, sodium acetate 5 mM (300: 300: 400: 14 v/v/v/v); injection volume 50 μl; flow rate 1 ml/min; run time for one cycle: 10 min and fluorescence detection (excitation at 340 nm and emission at 465 nm).
(§14) Before extraction of OTA from the plasma, all the studied samples of plasma, which had already fixed OTA, were dialysed against free OTA RPMI medium for at least 15 minutes, one or several times, until no more OTA was found in the lower compartment.
(§15) The results obtained under condition (i) as defined hereinabove are reported in Table I, whereas the results obtained under condition (ii) are reported in Table II.

DNA = DNA adducts by postlabeling with ATP gamma 32P in organs (genotoxicity); assay type: in vivo, rats
Procedure: as §1, §2, §7
The organs of the same animals were used for extraction of the DNA, which was analyzed by the technique of postlabeling with ATP gamma 32P in order to evaluate the genotoxicity by the presence of adducts with DNA bases.

[6] = Urine proteins in rats treated with ochratoxin A; assay type: in vivo; conditions: aspartame 25 mg/kg + ochratoxin A 289 μg/kg, 3 weeks
Procedure: as §1, §2, §3, §4, §5, §6, §7

human plasma proteins [7] = assay: OTA binding to human plasma proteins, condition (ii): OTA with or without aspartame in lower compartment; assay type: in vitro ADME
Procedure: as §8, §9, §10, §11, §12
(ii) The upper compartment contained human plasma proteins only and OTA (20, 100 and 500 μg/ml) was added into the lower compartment alone or concommitantly with 10 μg/ml aspartame.
as §13, §14, §15
Under condition (ii) (Table II), the aspartame was put in the same compartment as OTA in the non-plasmatic compartment to mimic the stomach (the ration OTA/aspartame=1.5 to 36).

renal cells = assay: Entry of ochratoxin into renal cells; conditions: ochratoxin A with aspartame
[8] = Serum and urine assays of ochratoxin (urinary elimination); assay type: in vivo, rats
Procedure: as §1, §2, §3, §4, §5, §6, §7

[9] = aspartame 30 mg/kg one hour after last ochratoxin A
[10] = rats, aspartame 25 mg/kg + ochratoxin A 289 μg/kg every 48 h, 3 weeks, gavage
[11] = OTA 20 μg/ml, 30 min, aspartame 10 μg/ml
[12] = OTA 20 μg/ml, 60 min, aspartame 10 μg/ml
[13] = OTA 20 μg/ml, 120 min, aspartame 10 μg/ml
[14] = OTA 100 μg/ml, 30 min, aspartame 10 μg/ml
[15] = OTA 100 μg/ml, 60 min, aspartame 10 μg/ml
[16] = OTA 100 μg/ml, 120 min, aspartame 10 μg/ml
[17] = OTA 500 μg/ml, 30 min, aspartame 10 μg/ml
[18] = OTA 500 μg/ml, 60 min, aspartame 10 μg/ml
[19] = OTA 500 μg/ml, 120 min, aspartame 10 μg/ml

## COC(=O)[C@H](Cc1ccccc1)NC(=O)[C@@H](N)CC(=O)O [Aspartame, methyl ester of L-aspartyl- L-phenylalanine] (H-Asp-Phe-OMe)
Tubular cells
  effect on the increase in urinary enzymic activities caused by ochratoxin A: appreciably reduces the increase in the enzymic activities caused by ochratoxin A
  urinary enzymic activities vs controls: not being significantly different from those of the controls
Glomerular filtration [1]; [9]
  effect on the increase in serum creatinine: very markedly reduces the increase in serum creatinine
  effect on urine creatinine: increases the level of urine creatinine, which is similar to the control values
Glomerular filtration [1]; aspartame 30 mg/kg with ochratoxin A 289 μg/kg
  effects on serum creatinine and serum creatinine/urine creatinine ratio (glomerular filtration): beneficial
Glomerular filtration [2]; [10]
  level of serum creatinine: significant reduction in the level of serum creatinine
  level of urine creatinine: parallel increase in the level of urine creatinine, which is comparable to the control level
Glomerular filtration [2]; summary statement
  tubular and glomerular attacks caused by ochratoxin: protects the kidney from the tubular and glomerular attacks caused by ochratoxin
[3]
  effect on toxic oxidative effects of ochratoxin A: opposes the toxic oxidative effects of ochratoxin A in vivo and in vitro
[4]
  oral dose of aspartame giving plasma concentration of 10 mg/l: 400 to 600 mg
Human plasma proteins [5]; [11]
  Quantities of OTA bound to plasma proteins, OTA + Aspartame (Table I): 157 ± 12 ng/mL
Human plasma proteins [5]; [12]
  Quantities of OTA bound to plasma proteins, OTA + Aspartame (Table I): 97 ± 4 ng/mL
Human plasma proteins [5]; [13]
  Quantities of OTA bound to plasma proteins, OTA + Aspartame (Table I): 15 ± 3 ng/mL
Human plasma proteins [5]; [14]
  Quantities of OTA bound to plasma proteins, OTA + Aspartame (Table I): 193 ± 17 ng/mL
Human plasma proteins [5]; [15]
  Quantities of OTA bound to plasma proteins, OTA + Aspartame (Table I): 74 ± 11 ng/mL
Human plasma proteins [5]; [16]
  Quantities of OTA bound to plasma proteins, OTA + Aspartame (Table I): 55 ± 15 ng/mL
Human plasma proteins [5]; OTA 100 μg/ml, aspartame 10 μg/ml
  OTA available that is bound as compared to control without aspartame: 4.5%
Human plasma proteins [5]; [17]
  Quantities of OTA bound to plasma proteins, OTA + Aspartame (Table I): 275 ± 41 ng/mL
Human plasma proteins [5]; [18]
  Quantities of OTA bound to plasma proteins, OTA + Aspartame (Table I): 296 ± 45 ng/mL
Human plasma proteins [5]; [19]
  Quantities of OTA bound to plasma proteins, OTA + Aspartame (Table I): 345 ± 51 ng/mL
Human plasma proteins [5]; OTA 500 μg/ml, aspartame 10 μg/ml
  OTA available that is bound to plasma proteins as compared to control without aspartame: 19.8%
Human plasma proteins [5]; OTA 20 to 500 μg/ml
  dependence of efficiency in preventing OTA binding on OTA concentration: inversely proportional to the concentrations of OTA
Human plasma proteins [5]; Table I, OTA 20 μg/ml, aspartame 10 μg/ml
  OTA available that is bound as compared to the control without aspartame: 2%
Human plasma proteins [5]; Table I, OTA concentrations as high as 20 μg/ml, aspartame 10 μg/ml
  efficiency in preventing the binding of OTA on human plasma proteins: about 98%
Human plasma proteins [5]; aspartame 10 μg/ml, i.e. 10 mg/l
  OTA bound (in words): practically no OTA bound
Human plasma proteins [5]; normal conditions, OTA concentrations lower than 20 μg/ml
  efficiency in preventing the OTA binding on human plasma proteins (conclusion): at least 95%
DNA; aspartame 25 mg/kg + OTA 289 μg/kg, 3 weeks
  DNA adducts in organs, aspartame and OTA: virtually complete disappearance of the DNA adducts; also recorded: comparable to those of the controls
DNA; results of the experiments performed
  nephrotoxic and genotoxic effects (overall conclusion): suppresses not only the nephrotoxic effects but also the genotoxic effects
[6]
  effect on the ochratoxin-induced increase in the level of urine proteins: reduces the increase, induced by ochratoxin, in the level of urine proteins
Human plasma proteins [7]; [11]
  Quantities of OTA bound to plasma proteins, OTA + Aspartame (Table II): 159 ± 13 ng/mL
Human plasma proteins [7]; [12]
  Quantities of OTA bound to plasma proteins, OTA + Aspartame (Table II): 53 ± 6 ng/mL
Human plasma proteins [7]; [13]
  Quantities of OTA bound to plasma proteins, OTA + Aspartame (Table II): 39 ± 4 ng/mL
Human plasma proteins [7]; [14]
  Quantities of OTA bound to plasma proteins, OTA + Aspartame (Table II): 245 ± 15 ng/mL
Human plasma proteins [7]; [15]
  Quantities of OTA bound to plasma proteins, OTA + Aspartame (Table II): 459 ± 27 ng/mL
Human plasma proteins [7]; [16]
  Quantities of OTA bound to plasma proteins, OTA + Aspartame (Table II): 587 ± 38 ng/mL
Human plasma proteins [7]; [17]
  Quantities of OTA bound to plasma proteins, OTA + Aspartame (Table II): 516 ± 19 ng/mL
Human plasma proteins [7]; [18]
  Quantities of OTA bound to plasma proteins, OTA + Aspartame (Table II): 1127 ± 89 ng/mL
Human plasma proteins [7]; [19]
  Quantities of OTA bound to plasma proteins, OTA + Aspartame (Table II): 1789 ± 56 ng/mL
Human plasma proteins [7]; OTA in lower compartment (stomach), OTA as high as 20 μg/ml
  efficiency in preventing the binding of OTA on human plasma proteins: more than 95%
Human plasma proteins [7]; Table II, OTA 100 μg/ml, aspartame 10 μg/ml
  prevention of the binding of OTA: 50%
Human plasma proteins [7]; Table II, OTA 500 μg/ml, aspartame 10 μg/ml
  efficiency in preventing OTA binding (in words): no longer efficient
Renal cells
  concentration/entry of ochratoxin in renal cells: limiting the entry of ochratoxin into these cells; also recorded: reducing the concentration of ochratoxin in the renal cells
[8]; serum and urine assays, rats, aspartame 25 mg/kg + ochratoxin A, 3 weeks
  urinary elimination of ochratoxin: very substantially favors urinary elimination of the ochratoxin A; also recorded: significantly increases the urinary elimination of ochratoxin
[8]; summary statement
  effect on metabolism and elimination of ochratoxin A: slow down the metabolism and accelerate the elimination of ochratoxin A
